Measurements from ChEMBL document CHEMBL1817618, “Synthesis and evaluation of dual site inhibitors of 3-deoxy-D-arabino-heptulosonate 7-phosphate synthase” (Bioorg Med Chem Lett, 2011).

Key:
[1] = target: T1, Phospho-2-dehydro-3-deoxyheptonate aldolase (Escherichia coli, UniProt C3TIE2); experiment: Inhibition of recombinant Escherichia coli DAH7P synthase
[2] = target: T1, Phospho-2-dehydro-3-deoxyheptonate aldolase; experiment: Competitive inhibition of recombinant Escherichia coli DAH7P synthase using PEP as substrate by Michaelis-Menten equation analysis using UV-visible spectrophotometry

T1 sequence (C3TIE2 whole entry): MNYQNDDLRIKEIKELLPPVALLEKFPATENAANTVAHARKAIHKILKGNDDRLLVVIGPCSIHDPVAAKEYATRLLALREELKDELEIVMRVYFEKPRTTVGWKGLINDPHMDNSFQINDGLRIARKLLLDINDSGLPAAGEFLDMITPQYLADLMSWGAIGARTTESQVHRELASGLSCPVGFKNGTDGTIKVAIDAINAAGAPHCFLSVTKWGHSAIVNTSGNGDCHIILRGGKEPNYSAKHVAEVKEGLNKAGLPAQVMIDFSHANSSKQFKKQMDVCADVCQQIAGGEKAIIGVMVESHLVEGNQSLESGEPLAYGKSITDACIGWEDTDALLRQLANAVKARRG

With `C/C(=C\P(=O)(O)O)C(=O)O` the Ki [1] was 4.7 µM.
`O=C(O)/C(=C/P(=O)(O)O)CCCCCBr` showed a Ki [2] of 3.6 µM.
In the case of `C=C(CP(=O)(O)O)C(=O)O`, the Ki [1] is reported as 270 µM.
With `O=C(O)C(=CCCCCOP(=O)(O)O)CP(=O)(O)O` (mixture of isomers) the Ki [2] was 154 µM.
For `O=C(O)C(=CP(=O)(O)O)CCCCCOP(=O)(O)O` (mixture of isomers), the Ki [2] was 5.3 µM.
